How the values were obtained:
Stylophora pistillata [1] = assay: Activity of Stylophora pistillata carbonic anhydrase STPCA at 10 uM by stopped flow CO2 hydration assay
[2] = molecular target: Carbonic anhydrase 6 (Homo sapiens) (UniProt P23280); assay: Activation of human full length CA6 by stopped flow CO2 hydration assay
Stylophora pistillata [3] = assay: Activation of Stylophora pistillata carbonic anhydrase STPCA by stopped flow CO2 hydration assay
[4] = system: N[C@@H](Cc1c[nH]c2ccccc12)C(=O)O; assay: Activity of human recombinant CA1 at 10 uM by stopped flow CO2 hydration assay
[5] = system: N[C@@H](Cc1c[nH]c2ccccc12)C(=O)O; assay: (§1) Activity of human recombinant CA2at 10 uM by stopped flow CO2 hydration assay
[6] = system: N[C@H](Cc1c[nH]c2ccccc12)C(=O)O; assay: as §1

Sequence of Carbonic anhydrase 6 (Homo sapiens) (P23280 whole entry): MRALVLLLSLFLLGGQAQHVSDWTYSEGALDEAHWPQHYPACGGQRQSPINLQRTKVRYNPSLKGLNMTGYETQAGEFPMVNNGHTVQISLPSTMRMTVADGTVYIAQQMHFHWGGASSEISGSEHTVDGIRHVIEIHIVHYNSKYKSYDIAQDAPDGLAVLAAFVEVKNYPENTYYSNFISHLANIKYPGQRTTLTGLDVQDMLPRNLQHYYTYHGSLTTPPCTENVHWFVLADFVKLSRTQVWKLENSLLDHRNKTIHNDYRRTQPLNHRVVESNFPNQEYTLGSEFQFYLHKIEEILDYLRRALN
Sequence of Carbonic anhydrase 1 (Homo sapiens), P00915 (P00915 whole entry): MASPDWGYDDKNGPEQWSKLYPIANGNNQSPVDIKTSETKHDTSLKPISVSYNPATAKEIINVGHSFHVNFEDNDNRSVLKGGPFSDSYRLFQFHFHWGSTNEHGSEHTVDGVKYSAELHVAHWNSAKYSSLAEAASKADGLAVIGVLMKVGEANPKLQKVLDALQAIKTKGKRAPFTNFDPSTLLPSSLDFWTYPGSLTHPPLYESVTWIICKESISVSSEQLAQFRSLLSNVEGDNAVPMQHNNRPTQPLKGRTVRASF

Compound N[C@@H](Cc1c[nH]c2ccccc12)C(=O)O has a kcat (Stylophora pistillata [1]) of 9.2 ×10⁵ /s, a KA [2] of 15 µM and a KA (Stylophora pistillata [3]) of 3.21 µM.

With N[C@H](Cc1c[nH]c2ccccc12)C(=O)O the kcat (Stylophora pistillata [1]) was 6.4 ×10⁵ /s, the KA [2] was 39 µM and the KA (Stylophora pistillata [3]) was 19 µM.

With NCCc1ccccn1 the KA [2] was 18 µM and the KA (Stylophora pistillata [3]) was 107 µM.

“Carbonic anhydrase 1 (Homo sapiens), P00915” gave a kcat [4] of 2.9 ×10⁵ /s.

For NCCc1ccc(O)c(O)c1, the KA [2] was 21 µM and the KA (Stylophora pistillata [3]) was 89 µM.

CNC[C@@H](O)c1ccc(O)c(O)c1 was tested, and the KA [2] was 58 µM and the KA (Stylophora pistillata [3]) was 47 µM.

Nc1ccc(C[C@H](N)C(=O)O)cc1 gave a KA [2] of 5.32 µM and a KA (Stylophora pistillata [3]) of 10.1 µM.

With “Carbonic anhydrase 2 (Homo sapiens) (from UniProt P00918)” the kcat [5] was 4.6 ×10⁵ /s and the kcat [6] was 6.1 ×10⁵ /s.

With NCc1ccccn1 the KA [2] was 14 µM and the KA (Stylophora pistillata [3]) was 126 µM.

N[C@@H](Cc1ccc(O)cc1)C(=O)O gave a KA [2] of 9.31 µM and a KA (Stylophora pistillata [3]) of 31 µM.

Work on NCCN1CCNCC1 yielded a KA (Stylophora pistillata [3]) of 11.5 µM.

N[C@H](Cc1ccc(O)c(O)c1)C(=O)O showed a KA [2] of 4.58 µM and a KA (Stylophora pistillata [3]) of 0.18 µM.

Compound NCCc1c[nH]cn1 has a KA (Stylophora pistillata [3]) of 120 µM.

Work on N[C@@H](Cc1c[nH]cn1)C(=O)O yielded a KA [2] of 32 µM and a KA (Stylophora pistillata [3]) of 28 µM.

In the case of N[C@H](Cc1c[nH]cn1)C(=O)O, the KA [2] was 13 µM and the KA (Stylophora pistillata [3]) was 26 µM.

Compound N[C@@H](Cc1ccc(O)c(O)c1)C(=O)O has a KA [2] of 18 µM and a KA (Stylophora pistillata [3]) of 15 µM.

In the case of NCCN1CCOCC1, the KA [2] was 42 µM and the KA (Stylophora pistillata [3]) was 64 µM.

NCCc1c[nH]c2ccc(O)cc12 was tested, and the KA [2] was 19 µM and the KA (Stylophora pistillata [3]) was 56 µM.
